From ChEMBL document CHEMBL1909046, “DrugMatrix in vitro pharmacology data”

How the values were obtained:
[1] = target: 5-hydroxytryptamine receptor 4 (Cavia porcellus, UniProt O70528); type: cell membranes, Dunkin-Hartley, Striatum, Membrane; also: in other assays of this panel Not Active means under 50% inhibition at 10 µM
[2] = target: 5-hydroxytryptamine receptor 6 (Homo sapiens, UniProt P50406); type: cell membranes, HeLa, Membrane; settings: for Ki: read-out: Ki; as to all read-outs here: in other assays of this panel Not Active means under 50% inhibition at 10 µM
5-hydroxytryptamine receptor 6, sequence (P50406 whole entry): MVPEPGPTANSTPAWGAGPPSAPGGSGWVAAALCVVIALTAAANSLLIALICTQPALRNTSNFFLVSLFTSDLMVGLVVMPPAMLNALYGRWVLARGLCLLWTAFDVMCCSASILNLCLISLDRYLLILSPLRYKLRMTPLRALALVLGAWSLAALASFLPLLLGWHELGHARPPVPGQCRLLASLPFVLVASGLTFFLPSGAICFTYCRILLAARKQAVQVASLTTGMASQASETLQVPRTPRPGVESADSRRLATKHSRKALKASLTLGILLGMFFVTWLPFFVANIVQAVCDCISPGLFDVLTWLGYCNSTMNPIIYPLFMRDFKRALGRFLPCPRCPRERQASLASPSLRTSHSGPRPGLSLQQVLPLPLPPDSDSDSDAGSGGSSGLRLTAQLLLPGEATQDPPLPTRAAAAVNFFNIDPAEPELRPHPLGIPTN

[3] = target: Vascular endothelial growth factor receptor 1 (Homo sapiens, UniProt P17948); type: cell-based; settings: huvec; also: in other assays of this panel Not Active means under 50% inhibition at 10 µM
Vascular endothelial growth factor receptor 1, sequence (P17948 whole entry): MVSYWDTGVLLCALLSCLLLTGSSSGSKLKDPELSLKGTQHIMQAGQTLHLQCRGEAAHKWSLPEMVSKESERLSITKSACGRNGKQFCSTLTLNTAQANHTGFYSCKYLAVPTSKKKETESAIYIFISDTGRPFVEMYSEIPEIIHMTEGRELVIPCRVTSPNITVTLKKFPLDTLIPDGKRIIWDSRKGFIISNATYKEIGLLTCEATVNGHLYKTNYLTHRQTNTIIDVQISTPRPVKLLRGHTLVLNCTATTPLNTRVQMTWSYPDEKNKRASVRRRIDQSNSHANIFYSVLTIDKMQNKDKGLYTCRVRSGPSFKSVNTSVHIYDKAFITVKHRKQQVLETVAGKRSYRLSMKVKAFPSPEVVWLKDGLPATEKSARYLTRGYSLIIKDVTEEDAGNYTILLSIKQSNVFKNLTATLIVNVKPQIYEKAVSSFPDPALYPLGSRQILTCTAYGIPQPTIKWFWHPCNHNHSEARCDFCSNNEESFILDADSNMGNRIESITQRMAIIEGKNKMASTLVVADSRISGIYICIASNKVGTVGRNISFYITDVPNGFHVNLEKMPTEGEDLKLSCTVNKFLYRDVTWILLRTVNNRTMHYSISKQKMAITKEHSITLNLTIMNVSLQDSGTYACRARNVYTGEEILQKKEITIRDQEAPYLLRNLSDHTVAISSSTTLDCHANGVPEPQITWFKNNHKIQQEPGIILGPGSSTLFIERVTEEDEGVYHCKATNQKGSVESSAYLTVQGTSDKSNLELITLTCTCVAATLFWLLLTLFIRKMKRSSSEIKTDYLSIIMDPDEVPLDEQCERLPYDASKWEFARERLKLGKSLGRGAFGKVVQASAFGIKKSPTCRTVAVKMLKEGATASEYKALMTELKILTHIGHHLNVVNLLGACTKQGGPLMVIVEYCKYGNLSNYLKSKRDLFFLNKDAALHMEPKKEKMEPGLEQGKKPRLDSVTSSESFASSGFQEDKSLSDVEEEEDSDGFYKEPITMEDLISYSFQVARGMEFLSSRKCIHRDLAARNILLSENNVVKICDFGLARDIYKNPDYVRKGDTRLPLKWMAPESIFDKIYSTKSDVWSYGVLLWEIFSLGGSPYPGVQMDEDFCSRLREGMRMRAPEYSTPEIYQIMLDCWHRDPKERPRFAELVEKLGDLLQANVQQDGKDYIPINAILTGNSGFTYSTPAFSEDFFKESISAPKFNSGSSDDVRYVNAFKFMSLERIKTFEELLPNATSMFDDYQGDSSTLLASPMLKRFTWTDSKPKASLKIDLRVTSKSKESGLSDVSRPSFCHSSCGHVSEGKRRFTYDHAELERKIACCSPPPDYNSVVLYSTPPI

[4] = DRUGMATRIX: Glutamate, AMPA radioligand binding (ligand: [3H] AMPA); type: cell membranes, Rattus norvegicus, Wistar, Cerebral cortex, Membrane; settings: Not Active = under 50% inhibition at 10 µM
[5] = DRUGMATRIX: Imidazoline I2, Central radioligand binding (ligand: [3H] Idazoxan); type: cell membranes, Rattus norvegicus, Wistar, Cerebral cortex, Membrane; settings: Not Active = under 50% inhibition at 10 µM
[6] = target: Cytochrome P450 2C19 (Homo sapiens, UniProt P33261); settings: bti-tn-5b1-4; also: in other assays of this panel Not Active means under 50% inhibition at 10 µM
Cytochrome P450 2C19, sequence (P33261 whole entry): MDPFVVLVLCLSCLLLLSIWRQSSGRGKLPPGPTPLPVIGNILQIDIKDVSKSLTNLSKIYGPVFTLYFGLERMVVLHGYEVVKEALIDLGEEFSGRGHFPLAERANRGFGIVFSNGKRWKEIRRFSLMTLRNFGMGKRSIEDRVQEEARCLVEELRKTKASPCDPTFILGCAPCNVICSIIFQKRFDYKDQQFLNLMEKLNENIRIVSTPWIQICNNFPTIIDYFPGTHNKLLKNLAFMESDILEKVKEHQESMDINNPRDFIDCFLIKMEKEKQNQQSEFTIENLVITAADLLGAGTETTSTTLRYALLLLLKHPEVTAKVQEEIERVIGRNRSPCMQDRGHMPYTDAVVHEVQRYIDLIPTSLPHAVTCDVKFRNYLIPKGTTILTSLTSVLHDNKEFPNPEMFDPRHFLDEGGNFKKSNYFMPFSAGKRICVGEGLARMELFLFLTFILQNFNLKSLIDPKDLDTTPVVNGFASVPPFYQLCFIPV

[7] = target: Cytochrome P450 3A4 (Homo sapiens, UniProt P08684); settings: bti-tn-5b1-4; also: in other assays of this panel Not Active means under 50% inhibition at 10 µM
Cytochrome P450 3A4, sequence (P08684 whole entry): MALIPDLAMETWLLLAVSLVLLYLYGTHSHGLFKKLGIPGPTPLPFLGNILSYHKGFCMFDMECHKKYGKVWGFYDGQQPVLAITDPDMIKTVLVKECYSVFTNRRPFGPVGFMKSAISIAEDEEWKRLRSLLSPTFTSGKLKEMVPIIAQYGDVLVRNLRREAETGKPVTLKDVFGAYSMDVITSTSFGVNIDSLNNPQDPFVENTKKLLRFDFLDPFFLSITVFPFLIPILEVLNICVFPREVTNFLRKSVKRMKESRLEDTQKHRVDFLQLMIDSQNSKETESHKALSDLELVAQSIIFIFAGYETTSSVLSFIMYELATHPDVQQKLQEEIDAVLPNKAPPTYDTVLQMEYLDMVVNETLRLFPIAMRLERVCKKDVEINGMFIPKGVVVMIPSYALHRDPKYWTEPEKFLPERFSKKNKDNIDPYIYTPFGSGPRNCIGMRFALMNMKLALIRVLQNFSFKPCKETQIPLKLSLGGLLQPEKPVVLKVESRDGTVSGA

5-hydroxytryptamine receptor 4, sequence (O70528 whole entry): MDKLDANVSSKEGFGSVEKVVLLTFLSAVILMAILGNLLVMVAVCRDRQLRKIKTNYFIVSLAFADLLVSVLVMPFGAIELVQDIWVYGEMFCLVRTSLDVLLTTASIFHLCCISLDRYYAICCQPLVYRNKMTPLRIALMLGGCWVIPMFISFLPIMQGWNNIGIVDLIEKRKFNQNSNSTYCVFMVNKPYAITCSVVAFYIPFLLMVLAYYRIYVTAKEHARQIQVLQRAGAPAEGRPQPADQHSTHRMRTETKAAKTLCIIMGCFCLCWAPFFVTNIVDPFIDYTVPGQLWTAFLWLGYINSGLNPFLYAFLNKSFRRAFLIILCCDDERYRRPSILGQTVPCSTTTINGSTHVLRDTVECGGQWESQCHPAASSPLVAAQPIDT

| Structure (SMILES) | IC50 [1] | IC50 ([2]; hela) | IC50 [3] | IC50 [4] | Ki [4] | IC50 [5] | Ki [5] | IC50 [6] | Ki [6] | IC50 [7] | Ki [7] | IC50 ([1]; read-out: IC50) [nM] | Ki ([1]; read-out: Ki) [nM] | IC50 ([2]; read-out: IC50) [nM] | Ki [2] [nM] | IC50 ([5]; read-out: IC50) [nM] | Ki ([5]; read-out: Ki) [nM] |
| --- | --- | --- | --- | --- | --- | --- | --- | --- | --- | --- | --- | --- | --- | --- | --- | --- | --- |
| Cl.NC[C@H]1CC[C@H](C(=O)Oc2ccc(CCC(=O)O)cc2)CC1 [CETRAXATE HYDROCHLORIDE] | Not Active | Not Active | Not Active | Not Active | Not Active | Not Active | Not Active | Not Active | Not Active | Not Active | Not Active |  |  |  |  |  |  |
| COc1ccccc1OCCNCC(O)COc1cccc2[nH]c3ccccc3c12 (configuration not stated) [CARVEDILOL] |  |  | Not Active | Not Active | Not Active |  |  | Not Active | Not Active | Not Active | Not Active | 1090 | 181 | 1520 | 705 | 1920 | 1280 |
| C[C@H](C(=O)O)c1ccc2oc(-c3ccc(F)cc3)nc2c1 [FLUNOXAPROFEN] | Not Active | Not Active | Not Active | Not Active | Not Active | Not Active | Not Active | Not Active | Not Active | Not Active | Not Active |  |  |  |  |  |  |
| CCN1CCN(c2cc3c(cc2F)c(=O)c(C(=O)O)cn3C2CC2)CC1 [ENROFLOXACIN] | Not Active | Not Active | Not Active | Not Active | Not Active | Not Active | Not Active | Not Active | Not Active | Not Active | Not Active |  |  |  |  |  |  |
| C[C@]12CC[C@@H](O)C[C@@H]1CC[C@@H]1[C@@H]2CC[C@]2(C)C(=O)CC[C@@H]12 [ANDROSTERONE] | Not Active | Not Active | Not Active | Not Active | Not Active | Not Active | Not Active | Not Active | Not Active | Not Active | Not Active |  |  |  |  |  |  |
| O=C(NCCN1CCOCC1)c1ccc(Cl)cc1 [MOCLOBEMIDE] | Not Active | Not Active | Not Active | Not Active | Not Active | Not Active | Not Active | Not Active | Not Active | Not Active | Not Active |  |  |  |  |  |  |
| NC(=O)CN1CCCC1=O | Not Active | Not Active | Not Active | Not Active | Not Active | Not Active | Not Active | Not Active | Not Active | Not Active | Not Active |  |  |  |  |  |  |
| Oc1ccccc1 [PHENOL] | Not Active | Not Active | Not Active | Not Active | Not Active | Not Active | Not Active | Not Active | Not Active | Not Active | Not Active |  |  |  |  |  |  |
| CCO [ALCOHOL] | Not Active | Not Active | Not Active | Not Active | Not Active | Not Active | Not Active | Not Active | Not Active | Not Active | Not Active |  |  |  |  |  |  |
| OC[C@H]1O[C@@H]2O[C@H]3[C@H](O)[C@@H](O)[C@@H](O[C@H]4[C@H](O)[C@@H](O)[C@@H](O[C@H]5[C@H](O)[C@@H](O)[C@@H](O[C@H]6[C@H](O)[C@@H](O)[C@@H](O[C@H]7[C@H](O)[C@@H](O)[C@@H](O[C@H]8[C@H](O)[C@@H](O)[C@@H](O[C@H]1[C@H](O)[C@H]2O)O[C@@H]8CO)O[C@@H]7CO)O[C@@H]6CO)O[C@@H]5CO)O[C@@H]4CO)O[C@@H]3CO [BETADEX] | Not Active | Not Active | Not Active | Not Active | Not Active | Not Active | Not Active | Not Active | Not Active | Not Active | Not Active |  |  |  |  |  |  |
| NC(N)=Nc1nc(CSCCC(N)=NS(N)(=O)=O)cs1 [FAMOTIDINE] | Not Active | Not Active | Not Active | Not Active | Not Active | Not Active | Not Active | Not Active | Not Active | Not Active | Not Active |  |  |  |  |  |  |
| COc1cc(NC(C)CCCN)c2ncccc2c1 (configuration not stated) [PRIMAQUINE] | Not Active | Not Active | Not Active | Not Active | Not Active | Not Active | Not Active | Not Active | Not Active | Not Active | Not Active |  |  |  |  |  |  |
| Cc1c(N)nc([C@H](CC(N)=O)NC[C@H](N)C(N)=O)nc1C(=O)N[C@H](C(=O)N[C@H](C)[C@@H](O)[C@H](C)C(=O)N[C@H](C(=O)NCCc1nc(-c2nc(C(=O)NCCC[S+](C)C)cs2)cs1)[C@@H](C)O)[C@@H](O[C@@H]1O[C@@H](CO)[C@@H](O)[C@H](O)[C@@H]1O[C@H]1O[C@H](CO)[C@@H](O)[C@H](OC(N)=O)[C@@H]1O)c1c[nH]cn1.[Br-] [BLEOMYCIN A2] | Not Active | Not Active | Not Active | Not Active | Not Active | Not Active | Not Active | Not Active | Not Active | Not Active | Not Active |  |  |  |  |  |  |
| c1ccc2c(c1)Nc1ccccc1S2 [PHENOTHIAZINE] | Not Active | Not Active | Not Active | Not Active | Not Active | Not Active | Not Active | Not Active | Not Active | Not Active | Not Active |  |  |  |  |  |  |
| OC[C@H]1OC2C3[C@@H](CO)OC(O[C@H]4[C@H](O)[C@@H](O)[C@@H](O[C@H]5[C@H](O)[C@@H](O)[C@@H](O[C@H]6[C@H](O)[C@@H](O)[C@@H](O[C@H]7[C@H](O)[C@@H](O)[C@@H](O[C@H]8[C@H](O)[C@@H](O)[C@@H](O[C@H]9[C@H](O)[C@@H](O)C(OC1[C@H](O)[C@H]2O)O[C@@H]9CO)O[C@@H]8CO)O[C@@H]7CO)O[C@@H]6CO)O[C@@H]5CO)O[C@@H]4CO)[C@H](O)[C@H]3O | Not Active | Not Active | Not Active | Not Active | Not Active | Not Active | Not Active | Not Active | Not Active | Not Active | Not Active |  |  |  |  |  |  |
| CC(C)Cc1ccc([C@H](C)C(=O)O)cc1 [DEXIBUPROFEN] | Not Active | Not Active | Not Active | Not Active | Not Active | Not Active | Not Active | Not Active | Not Active | Not Active | Not Active |  |  |  |  |  |  |
| CC(N)Cc1c[nH]c2ccc(OCc3cccs3)cc12 (configuration not stated) [BW-723C86] | Not Active |  | Not Active | Not Active | Not Active | Not Active | Not Active | Not Active | Not Active | Not Active | Not Active |  |  | 641 | 298 |  |  |
| CC(=O)[C@]1(O)Cc2c(O)c3c(c(O)c2[C@@H](O[C@H]2C[C@H](N)[C@H](O)[C@H](C)O2)C1)C(=O)c1ccccc1C3=O [IDARUBICIN] | Not Active | Not Active | Not Active | Not Active | Not Active | Not Active | Not Active | Not Active | Not Active | Not Active | Not Active |  |  |  |  |  |  |
| NC(=O)NC(=O)Cc1ccccc1 [PHENACEMIDE] | Not Active | Not Active | Not Active | Not Active | Not Active | Not Active | Not Active | Not Active | Not Active | Not Active | Not Active |  |  |  |  |  |  |
| Nc1ccc(C(=O)O)c(O)c1 [AMINOSALICYLIC ACID] | Not Active | Not Active | Not Active | Not Active | Not Active | Not Active | Not Active | Not Active | Not Active | Not Active | Not Active |  |  |  |  |  |  |
| Nc1nc(N)c2nc(CNc3ccc(C(=O)N[C@@H](CCC(=O)O)C(=O)O)cc3)cnc2n1 [AMINOPTERIN] | Not Active | Not Active | Not Active | Not Active | Not Active | Not Active | Not Active | Not Active | Not Active | Not Active | Not Active |  |  |  |  |  |  |
| c1ccc(Cn2ccnc2)cc1 | Not Active | Not Active | Not Active | Not Active | Not Active | Not Active | Not Active | Not Active | Not Active | Not Active | Not Active |  |  |  |  |  |  |
| COc1cc(/C=C/C(=O)O)ccc1O [FERULATE] | Not Active | Not Active | Not Active | Not Active | Not Active | Not Active | Not Active | Not Active | Not Active | Not Active | Not Active |  |  |  |  |  |  |
| C[N+](C)(C)CCOC(N)=O.[Cl-] [CARBACHOL] | Not Active | Not Active | Not Active | Not Active | Not Active | Not Active | Not Active | Not Active | Not Active | Not Active | Not Active |  |  |  |  |  |  |
